The record followed here is paper PMC12903969, “Discovery of a Novel and Potent Kir4.1 Inhibitor as a Safe and Rapid‐Onset Antidepressant Agent in Mice” (Advanced Science, 2025).

One series has as its target T1, Kir1.1 (Homo sapiens, UniProt P48048).
T1 construct: host or cells: CHO-K1
Put plainly: Whole-cell patch clamp, Kir1.1. Conditions: mean ± SEM. It is filed as cell-based. On the procedure:
(§1) Plasmids encoding WT human potassium channels Kir1.1, Kir2.1, Kir2.2, Kir4.1, and Kir4.2 were obtained from the Beijing Genomics Institute. All point mutations were constructed using the QuickChange II Site‐Directed Mutagenesis Kit (Stratagene) and subsequently verified by sequencing.
(§2) CHO‐K1 cells were maintained in DMEM/F12 growth medium containing 10% fetal bovine serum. Plasmids encoding the target genes (3600 ng) and enhanced green fluorescent protein (400 ng) were cotransfected into cells using Lipofectamine 2000 (Invitrogen) in accordance with the manufacturer's instructions. Cells were seeded onto poly‐d‐lysine (PDL)‐coated glass coverslips 1 h prior to electrophysiological recordings. […]
(§3) Whole‐cell patch‐clamp recordings were obtained either in transiently transfected CHO‐K1 cells or in primary cultured astrocytes at room temperature using standard patch‐clamp techniques with an Axopatch‐700B amplifier (Axon Instruments). […] Macroscopic currents generated by expressed potassium channels were recorded under the voltage‐clamp conditions with an internal pipette solution composed of (in mM): 140 KCl, 5 NaCl, 1 CaCl2, 1 MgCl2, 10 HEPES, and 10 EGTA, pH 7.2 adjusted with KOH. […] Astrocytic resting membrane potentials were recorded under current‐clamp conditions (I = 0 pA) using standard internal and external solutions, determined immediately after achieving whole‐cell mode.
(In general: Patch clamp records ionic current or voltage across a cell membrane.)

Another series concerns the target T2, Kir4.1 I159A (Homo sapiens, UniProt P78508, I159A).
T2 construct: expressed in transfected cells; host or cells: CHO-K1
T2 sequence (P78508 1-379 I159A): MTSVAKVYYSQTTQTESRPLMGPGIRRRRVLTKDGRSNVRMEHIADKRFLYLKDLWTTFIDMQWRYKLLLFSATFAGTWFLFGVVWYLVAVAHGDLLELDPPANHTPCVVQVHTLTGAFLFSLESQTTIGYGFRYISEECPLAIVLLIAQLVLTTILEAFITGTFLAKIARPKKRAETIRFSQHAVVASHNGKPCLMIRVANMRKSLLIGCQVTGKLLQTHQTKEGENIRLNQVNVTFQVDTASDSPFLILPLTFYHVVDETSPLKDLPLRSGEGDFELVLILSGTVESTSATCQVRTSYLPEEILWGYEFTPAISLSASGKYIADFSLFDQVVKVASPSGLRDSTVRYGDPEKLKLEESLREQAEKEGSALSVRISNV
Description: Whole-cell patch clamp, Kir4.1 point mutant I159A. It is filed as cell-based. The procedure: as §1
CHO‐K1 cells were maintained in DMEM/F12 growth medium containing 10% fetal bovine serum. Plasmids encoding the target genes (3600 ng) and enhanced green fluorescent protein (400 ng) were cotransfected into cells using Lipofectamine 2000 (Invitrogen) in accordance with the manufacturer's instructions. Cells were seeded onto poly‐d‐lysine (PDL)‐coated glass coverslips 1 h prior to electrophysiological recordings. All cells were cultured under standard conditions of 5% CO2 at 37 °C.
Whole‐cell patch‐clamp recordings were obtained either in transiently transfected CHO‐K1 cells or in primary cultured astrocytes at room temperature using standard patch‐clamp techniques with an Axopatch‐700B amplifier (Axon Instruments). The signals were filtered at 2 kHz and sampled at 20 kHz using the Digidata 1440A interface (Axon Instruments). The resistance of borosilicate glass pipettes was typically 2–4 MΩ when filled with the internal solution. Drug application was facilitated using a BPS perfusion system (ALA Scientific Instruments). Macroscopic currents generated by expressed potassium channels were recorded under the voltage‐clamp conditions with an internal pipette solution composed of (in mM): 140 KCl, 5 NaCl, 1 CaCl2, 1 MgCl2, 10 HEPES, and 10 EGTA, pH 7.2 adjusted with KOH. The external solution contained (in mM): 140 NaCl, 5 KCl, 2 CaCl2, 1 MgCl2, 10 glucose, and 10 HEPES, pH 7.4 adjusted with NaOH. Currents were elicited with a hyperpolarized voltage at −120 mV from the holding potential of −80 mV, followed by a ramp voltage depolarizing to +50 mV. Astrocytic resting membrane potentials were recorded under current‐clamp conditions (I = 0 pA) using standard internal and external solutions, determined immediately after achieving whole‐cell mode.

A further series deals with T3, Kir4.1 T162A (Homo sapiens, UniProt P78508, T162A).
T3 construct: expressed in transfected cells; host or cells: CHO-K1
Put plainly: Whole-cell patch clamp, Kir4.1 point mutant T162A. In kind it is cell-based. Conditions: JX3212 3 µM (Fig 2D). On the procedure: as §1, §2, §3

The subject of a further series is C57BL/6J mice after CSDS. Put plainly: Chronic social defeat stress (CSDS) model, sucrose preference test. The conditions noted are these: single i.p. injection 10 mg kg−1. In kind it is in vivo. On the procedure:
The 10‐day CSDS paradigm was conducted as previously described.^[ [24] ^] CD‐1 aggressive mice were singly housed in defeat cages on one side of a perforated plexiglass partition 24 h before the defeat session. Experimental C57BL/6J mice were placed daily on the resident cage side of a novel CD‐1 aggressor that rapidly initiated a physical attack on the intruder. After 10‐min of social defeat, the intruder mice were housed on the opposite side of the partition within a shared home cage, experiencing further sensory contact for the subsequent 24 h. In contrast, control mice were maintained in their home cages and allowed to explore the empty defeat cages for 10 min each day.
Mice were individually housed with two identical bottles containing either 1% sucrose solution or tap water for 24 h. The bottles were then replaced to eliminate potential positional bias, followed by an additional 24‐h period with the same solutions. Subsequently, the mice were provided with tap water for 24 h. During the experimental phase, new bottles filled with either 1% sucrose solution or tap water were presented for 24 h, and the bottles were changed every 12 h. The bottles were weighed both before and after the 24‐h test to assess consumption of each solution.

The subject of series [1] is mice. Description: Y-maze. It is filed as in vivo. The conditions noted are these: chronic 10 mg kg−1 per day. The procedure: This test was designed to evaluate spatial working memory. Briefly, mice were individually placed in a symmetrical Y‐maze and allowed to explore for 8 min. Entries were counted only when both hind paws crossed the arm threshold. Correct spatial alternation was defined as an entry into all three arms in an uninterrupted sequence (e.g., ABC, BCA or CAB each representing one alternation). The alternation percentage was derived as: [correct alternations/(total entries–2)] × 100%. After each session, the walls and floor of the maze were wiped with 75% ethanol and allowed to dry before the next animal was tested.

In series [2] the test system is mice. Put plainly: Treadmill test (TT). The conditions noted are these: chronic 10 mg kg−1 per day. In kind it is in vivo. On the procedure: This test was designed to quantify locomotor endurance in rodents. The time (300 s) and speed (maximum: 30 rpm) parameters for the treadmill were set using a digital panel and the mice were placed in lanes. Gentle electrical probes (0.3 mA) served as motivational stimuli. Total distance traveled was automatically recorded using rotary encoder integration.

“And” between values parts separate entries of the source, which are not always exact repeats. Identical values can stand only once. Like-named read-outs stand apart in the source and are kept apart here.

T3 sequence (P78508 whole entry T162A): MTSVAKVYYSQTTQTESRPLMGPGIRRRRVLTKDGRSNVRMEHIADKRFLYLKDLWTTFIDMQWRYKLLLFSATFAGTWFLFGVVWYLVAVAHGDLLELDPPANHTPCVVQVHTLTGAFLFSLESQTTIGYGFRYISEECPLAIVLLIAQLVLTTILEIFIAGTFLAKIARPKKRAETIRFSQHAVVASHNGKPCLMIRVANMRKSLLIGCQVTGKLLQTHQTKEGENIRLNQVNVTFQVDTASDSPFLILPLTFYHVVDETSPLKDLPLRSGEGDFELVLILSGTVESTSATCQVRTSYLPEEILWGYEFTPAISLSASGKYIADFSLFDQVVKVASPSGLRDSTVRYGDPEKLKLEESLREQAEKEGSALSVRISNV
T1 sequence (P48048 whole entry): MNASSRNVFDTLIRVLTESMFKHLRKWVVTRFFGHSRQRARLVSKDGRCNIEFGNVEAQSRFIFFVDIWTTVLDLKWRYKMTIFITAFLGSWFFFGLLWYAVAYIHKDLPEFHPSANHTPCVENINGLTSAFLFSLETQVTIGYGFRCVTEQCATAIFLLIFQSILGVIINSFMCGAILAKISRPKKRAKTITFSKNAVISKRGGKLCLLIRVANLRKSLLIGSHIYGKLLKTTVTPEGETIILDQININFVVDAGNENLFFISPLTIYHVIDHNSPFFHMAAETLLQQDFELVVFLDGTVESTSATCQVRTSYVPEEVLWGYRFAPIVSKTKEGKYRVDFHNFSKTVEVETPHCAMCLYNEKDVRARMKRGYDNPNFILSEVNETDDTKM

The inhibition is the share of the control response that was lost under treatment. Turning to `c1ccc2c(c1)oc1ccc(Nc3ccnc(NCCCN4CCOCC4)n3)cc12` [JX3212, N^4-(dibenzo[b,d]furan-2-yl)-N^2-(3-morpholinopropyl)pyrimidine-2,4-diamine], the inhibition at 3 µM against Kir1.1 was 17.8 ± 8.26%; at Kir4.1 I159A (3 µM, mean ± SEM, read-out: current inhibition, Kir4.1 I159A), 43.9 ± 6.15%; on Kir4.1 I159A (JX3212 3 µM (Fig 2D), read-out: Mutation: I159A inhibition, single recordings), 42.9%. Further, on Kir4.1 I159A (JX3212 3 µM (Fig 2D)), the “Mutation: I159A inhibition, single recordings” value is 52.8569 and 40.7357 and 46.4245 and 36.569. In addition, at Kir4.1 T162A, the “Mutation: T162A inhibition, single recordings” value is 80.9735 and 73.6489 and 64.6435 and 83.1492 and 87.0339. Moreover, the “CSDS: sucrose preference in SPT (in words)” value in the series on C57BL/6J mice after CSDS is listed as “nonsignificant increase in the sucrose preference ratio”. In the series on mice [1], the “Y-maze alternation percentage vs vehicle (in words)” value is “showed no effects”. For the same molecule, the “treadmill running distance vs vehicle (in words)” value with mice [2] was “showed no significant effects”.
